Structures can show the parent of a compound that is named as a salt.

T1 sequence (Q9Y5N1 whole entry): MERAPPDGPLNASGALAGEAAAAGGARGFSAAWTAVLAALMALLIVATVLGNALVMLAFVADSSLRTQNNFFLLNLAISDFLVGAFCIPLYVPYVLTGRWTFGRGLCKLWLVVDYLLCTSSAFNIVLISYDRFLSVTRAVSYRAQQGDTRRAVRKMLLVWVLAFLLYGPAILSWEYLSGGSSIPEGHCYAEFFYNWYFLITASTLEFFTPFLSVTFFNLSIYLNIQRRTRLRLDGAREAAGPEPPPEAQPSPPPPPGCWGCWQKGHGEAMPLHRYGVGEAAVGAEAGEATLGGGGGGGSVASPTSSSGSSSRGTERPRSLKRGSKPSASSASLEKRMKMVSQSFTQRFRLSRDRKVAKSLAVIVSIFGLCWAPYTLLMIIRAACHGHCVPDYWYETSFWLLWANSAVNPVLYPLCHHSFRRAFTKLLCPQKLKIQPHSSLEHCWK

The first test addresses T1, histamine H3 receptor (Homo sapiens, UniProt Q9Y5N1).
T1 construct: expressed in transfected cells; host or cells: CHO K1 cells (pSwitch/pGene GeneSwitch system, mifepristone-induced), clone 3H3; membranes
Put plainly: Histamine H3 functional antagonist assay (method B). The note with it: [35S]-GTPγS SPA, membrane prepared from cultured H3 cells, histamine at EC80, averages of a number of experiments, read-out: functional pKi (fpKi), antagonism (converted). It counts as biochemical. The text has this:
(§1) A membrane preparation containing histamine H3 receptors may be prepared in accordance with the following procedures:
(§2) (i) Generation of Histamine H3 Cell Line
(§3) DNA encoding the human histamine H3 gene (Huvar, A. et al. (1999) Mol. Pharmacol. 55(6), 1101-1107) was cloned into a holding vector, pcDNA3.1 TOPO (InVitrogen) and its cDNA was isolated from this vector by restriction digestion of plasmid DNA with the enzymes BamH1 and Not-1 and ligated into the inducible expression vector pGene (InVitrogen) digested with the same enzymes. The GeneSwitch™ system (a system where in transgene expression is switched off in the absence of an inducer and switched on in the presence of an inducer) was performed as described in U.S. Pat. Nos. 5,364,791; 5,874,534; and 5,935,934. Ligated DNA was transformed into competent DH5α E. coli host bacterial cells and plated onto Luria Broth (LB) agar containing Zeocin™ (an antibiotic which allows the selection of cells expressing the sh ble gene which is present on pGene and pSwitch) at 50 μg ml^−1. Colonies containing the re-ligated plasmid were identified by restriction analysis. DNA for transfection into mammalian cells was prepared from 250 ml cultures of the host bacterium containing the pGeneH3 plasmid and isolated using a DNA preparation kit (Qiagen Midi-Prep) as per manufacturers guidelines (Qiagen).
(§4) CHO K1 cells previously transfected with the pSwitch regulatory plasmid (InVitrogen) were seeded at 2×10e6 cells per T75 flask in Complete Medium, containing Hams F12 (GIBCOBRL, Life Technologies) medium supplemented with 10% v/v dialysed foetal bovine serum, L-glutamine, and hygromycin (100 μg ml^−1), 24 hours prior to use. Plasmid DNA was transfected into the cells using Lipofectamine plus according to the manufacturers guidelines (InVitrogen). 48 hours post transfection cells were placed into complete medium supplemented with 500 μg ml^−1 Zeocin™.
(§5) 10-14 days post selection 10 nM Mifepristone (InVitrogen), was added to the culture medium to induce the expression of the receptor. 18 hours post induction cells were detached from the flask using ethylenediamine tetra-acetic acid (EDTA; 1:5000; InVitrogen), following several washes with phosphate buffered saline pH 7.4 and resuspended in Sorting Medium containing Minimum Essential Medium (MEM), without phenol red, and supplemented with Earles salts and 3% Foetal Clone II (Hyclone). Approximately 1×10e7 cells were examined for receptor expression by staining with a rabbit polyclonal antibody, 4a, raised against the N-terminal domain of the histamine H3 receptor, incubated on ice for 60 minutes, followed by two washes in sorting medium. Receptor bound antibody was detected by incubation of the cells for 60 minutes on ice with a goat anti rabbit antibody, conjugated with Alexa 488 fluorescence marker (Molecular Probes). Following two further washes with Sorting Medium, cells were filtered through a 50 μm Filcon™ (BD Biosciences) and then analysed on a FACS Vantage SE Flow Cytometer fitted with an Automatic Cell Deposition Unit. Control cells were non-induced cells treated in a similar manner. Positively stained cells were sorted as single cells into 96-well plates, containing Complete Medium containing 500 μg ml^−1 Zeocin™ and allowed to expand before reanalysis for receptor expression via antibody and ligand binding studies. One clone, 3H3, was selected for membrane preparation.
(ii) Membrane Preparation from Cultured Cells
All steps of the protocol are carried out at 4° C. and with pre-cooled reagents. The cell pellet is resuspended in 10 volumes of homogenisation buffer (50 mM N-2-hydroxyethylpiperazine-N′-2-ethanesulfonic acid (HEPES), 1 mM ethylenediamine tetra-acetic acid (EDTA), pH 7.4 with KOH, supplemented with 10e-6M leupeptin (acetyl-leucyl-leucyl-arginal; Sigma L2884), 25 μg/ml bacitracin (Sigma B0125), 1 mM phenylmethylsulfonyl fluoride (PMSF) and 2×10e-6M pepstain A (Sigma)). […]
(GTPγS resists hydrolysis and so accumulates on activated G proteins.)
Turning to `CCC(CC)N1CCN(C(=O)[C@H]2CCN(c3ccc(C(C)=O)cc3)C2)CC1` [Example E8, 1-[4-((3S)-3-{[4-(1-Ethylpropyl)-1-piperazinyl]carbonyl}-1-pyrrolidinyl)phenyl]ethanone], the Ki was not above 0.316 nM.
Same read-out and setting: for `O=C([C@H]1CCN(c2ccc(C(F)(F)F)nc2)C1)N1CCN(C2CCC2)CC1` [Example E12, 1-Cyclobutyl-4-({(3S)-1-[6-(trifluoromethyl)-3-pyridinyl]-3-pyrrolidinyl}carbonyl)piperazine] the value was not above 0.316 nM; for `CC(C)N1CCN(C(=O)[C@H]2CCN(c3ccc(-n4ccnc4)cc3)C2)CC1` [Example E43, 1-({(3S)-1-[4-(1H-imidazol-1-yl)phenyl]-3-pyrrolidinyl}carbonyl)-4-(1-methylethyl)piperazine], not above 0.316 nM; for `CCc1noc(-c2ccc(N3CC[C@H](C(=O)N4CCCN(C(C)C)CC4)C3)cc2)n1` [Example E48, 1-({(3S)-1-[4-(3-Ethyl-1,2,4-oxadiazol-5-yl)phenyl]-3-pyrrolidinyl}carbonyl)-4-(1-methylethyl)hexahydro-1H-1,4-diazepine hydrochloride], not above 0.316 nM.
Same read-out and setting: under `Cc1noc(-c2ccc(N3CC[C@H](C(=O)N4CCN(C(C)C)CC4)C3)c(F)c2)n1` [Example E25, 1-({(3S)-1-[2-Fluoro-4-(3-methyl-1,2,4-oxadiazol-5-yl)phenyl]-3-pyrrolidinyl}carbonyl)-4-(1-methylethyl)piperazine] stands not above 0.316 nM; under `Cc1noc(-c2ccc(N3CC[C@H](C(=O)N4CCCN(C(C)C)CC4)C3)cn2)n1` [Example E53, 1-(1-Methylethyl)-4-({(3S)-1-[6-(3-methyl-1,2,4-oxadiazol-5-yl)-3-pyridinyl]-3-pyrrolidinyl}carbonyl)hexahydro-1H-1,4-diazepine hydrochloride], not above 0.316 nM; under `Cc1noc(-c2ccc(N3CCC(C(=O)N4CCCN(C5CCC5)CC4)C3)c(F)c2)n1` (racemic) [Example E20, (R,S)-1-Cyclobutyl-4-({1-[2-fluoro-4-(3-methyl-1,2,4-oxadiazol-5-yl)phenyl]-3-pyrrolidinyl}carbonyl)hexahydro-1H-1,4-diazepine], not above 0.316 nM.
Same read-out and setting: for `Cc1noc(-c2ccc(N3CC[C@H](C(=O)N4CCN(C5CCC5)CC4)C3)cc2)n1` [Example E13, 1-Cyclobutyl-4-({(3S)-1-[4-(3-methyl-1,2,4-oxadiazol-5-yl)phenyl]-3-pyrrolidinyl}carbonyl)piperazine] the value was not above 0.316 nM.
As for `Cc1noc(-c2ccc(N3CC[C@H](C(=O)N4CCCN(CC5CC5)CC4)C3)cc2)n1` [Example E11, 1-(Cyclopropylmethyl)-4-({(3S)-1-[4-(3-methyl-1,2,4-oxadiazol-5-yl)phenyl]-3-pyrrolidinyl}carbonyl)hexahydro-1H-1,4-diazepine], the Ki was not above 0.316 nM.
The same measure, in the same setting: under `CC(=O)c1ccc(N2CCC(C(=O)N3CCCN(C4CCC4)CC3)C2)cc1` (racemic) [Example E21, (R,S)-1-(4-{3-[(4-Cyclobutylhexahydro-1H-1,4-diazepin-1-yl)carbonyl]-1-pyrrolidinyl}phenyl)ethanone] stands not above 0.316 nM; under `CC(=O)c1ccc(N2CC[C@@H](C(=O)N3CCCN(C4CCC4)CC3)C2)cc1` (single isomer, unassigned) [Example E21A, hydrochloride], less than 10 nM.
`Cc1noc(-c2ccc(N3CC[C@H](C(=O)N4CCN(C(C)C)CC4)C3)cc2)n1` [Example E3, 1-(1-Methylethyl)-4-({(3S)-1-[4-(3-methyl-1,2,4-oxadiazol-5-yl)phenyl]-3-pyrrolidinyl}carbonyl)piperazine]: the Ki was not above 0.316 nM.
On the same count and under the same terms, under `Cc1ccc2cc(N3CC[C@@H](C(=O)N4CCCN(C5CCC5)CC4)C3)ccc2n1` (single isomer, unassigned) [Example E19A, hydrochloride] stands less than 10 nM.
Same read-out and setting: for `Cc1noc(-c2ccc(N3CC[C@H](C(=O)N4CCN(C(C)C)CC4)C3)cn2)n1` [Example E54, 1-(1-Methylethyl)-4-({(3S)-1-[6-(3-methyl-1,2,4-oxadiazol-5-yl)-3-pyridinyl]-3-pyrrolidinyl}carbonyl)piperazine hydrochloride] the value was not above 0.316 nM; for `Cc1noc(-c2ccc(N3CC[C@@H](C(=O)N4CCCN(C5CCC5)CC4)C3)cc2)n1` (single isomer, unassigned) [Example E18A, hydrochloride], not above 0.316 nM; for `O=C(C1CCN(c2ccc(C(F)(F)F)nc2)C1)N1CCCN(C2CCC2)CC1` (racemic) [Example E17, (R,S)-1-Cyclobutyl-4-({1-[6-(trifluoromethyl)-3-pyridinyl]-3-pyrrolidinyl}carbonyl)hexahydro-1H-1,4-diazepine], not above 0.316 nM.
With `Cc1ncc(-c2ccc(N3CC[C@H](C(=O)N4CCN(C(C)C)CC4)C3)cc2)o1` [Example E34, 1-(1-Methylethyl)-4-({(3S)-1-[4-(2-methyl-1,3-oxazol-5-yl)phenyl]-3-pyrrolidinyl}carbonyl)piperazine], the Ki was not above 0.316 nM.
For `CC(C)N1CCN(C(=O)[C@H]2CCN(c3ccc(C#N)cc3)C2)CC1` [Example E36, 4-((3S)-3-{[4-(1-Methylethyl)-1-piperazinyl]carbonyl}-1-pyrrolidinyl)benzonitrile hydrochloride], the Ki is not above 0.316 nM.
On the same count and under the same terms, for `Cc1noc(-c2ccc(N3CC[C@H](C(=O)N4CCN(C5CCC5)CC4)C3)cc2F)n1` [Example E52, 1-Cyclobutyl-4-({(3S)-1-[3-fluoro-4-(3-methyl-1,2,4-oxadiazol-5-yl)phenyl]-3-pyrrolidinyl}carbonyl)piperazine hydrochloride] the value was not above 0.316 nM.

The target in a further test is T1, histamine H3 receptor. Put plainly: Histamine H3 functional antagonist assay (method A). The note with it: [35S]-GTPγS SPA, membrane prepared from cultured H3 cells, histamine at EC80, averages of a number of experiments, read-out: functional pKi (fpKi), antagonism (converted). It counts as biochemical.
From the text: as §1, §2, §3, §4, §5
(ii) Membrane Preparation from Cultured Cells […]
In the case of `O=C([C@H]1CCN(c2ccc(C(F)(F)F)nc2)C1)N1CCCN(C2CCC2)CC1` (single isomer, unassigned) [Example E17B, hydrochloride], the Ki was less than 0.316 nM.
`CC(C)N1CCCN(C(=O)C2CCN(c3ccc(C(F)(F)F)nc3)C2)CC1` (racemic) [Example E22, (R,S)-1-(1-Methylethyl)-4-({(1-[6-(trifluoromethyl)-3-pyridinyl]-3-pyrrolidinyl}carbonyl)hexahydro-1H-1,4-diazepine hydrochloride]: the Ki was less than 10 nM.
The same measure, in the same setting: under `O=C(C1CCN(c2ccnc(C(F)(F)F)c2)C1)N1CCCN(C2CCC2)CC1` (racemic) [Example E23, (R,S)-1-Cyclobutyl-4-({1-[2-(trifluoromethyl)-4-pyridinyl]-3-pyrrolidinyl}carbonyl)hexahydro-1H-1,4-diazepine hydrochloride] stands less than 0.316 nM; under `O=C(C1CCN(c2ccc(C(F)(F)F)nc2)C1)N1CCCN(C2CCC2)CC1` (racemic) [Example E17, (R,S)-1-Cyclobutyl-4-({1-[6-(trifluoromethyl)-3-pyridinyl]-3-pyrrolidinyl}carbonyl)hexahydro-1H-1,4-diazepine], less than 0.316 nM; under `O=C([C@@H]1CCN(c2ccc(C(F)(F)F)nc2)C1)N1CCCN(C2CCC2)CC1` (single isomer, unassigned) [Example E17A, hydrochloride], less than 0.316 nM.

For the origin of these results see patent US20080045506A1 (GLAXO GROUP LIMITED, priority 2004, published 2008).
